Legend:
[1] = system: NLRP3 inflammasome, IL-1β release in human PBMCs; experiment: PBMC in vitro assay (LPS priming, nigericin, secreted IL-1β); assay type: cell-based
Experimental: Cryopreserved human PBMCs (iXCells Biotechnologies, San Diego, CA) were rapidly thawed and incubated overnight at 37 °C with 5% CO2 in Complete Media: RPMI 1640 medium (ATCC modification, Thermo Fisher Scientific) supplemented with 10% Fetal bovine serum (FBS, Thermo Fisher Scientific) and 1% Penicillin-Streptomycin (Thermo Fisher Scientific). The next day, cells were centrifuged (300 × g, 5 min), resuspended in Assay Media (Complete Media without FBS) and plated at 33,333 cells/well in a 96-well cell culture plate. PBMCs were then primed with 100 ng/ml LPS (E. coli O26:B6) for 4 h. Following LPS priming, PBMCs were incubated with VEN-02XX pre-diluted in assay media with 0.8% DMSO, for 30 min (top concentration 100 µM; 4-fold titration). Following drug incubation, PBMCs were stimulated with 10 µM Nigericin (Millipore-Sigma, Burlington, MA) for an additional 60 min, after which conditioned media was collected for analysis of secreted IL-1β in an electrochemiluminescence immunoassay (Mesoscale Discovery).

[2] = system: NLRP3 inflammasome, IL-1β in iPSC-derived microglia; experiment: iPSC-derived microglia in vitro assay, secreted IL-1β; assay type: cell-based; conditions: for IC50: Microglia, geometric mean, n = 5
Experimental: iPSC-derived microglia (BX-0900, BrainXell, Madison, WI) were thawed and recovered as per the supplier’s instructions. Briefly, viable cells were counted post-thaw using Trypan Blue, 0.4% (Thermo Fisher Scientific) and 25,000 cells were seeded on poly-d-lysine coated 96-well plates in DMEM-F/12 medium (Thermo Fisher Scientific) supplemented with 1X B-27 supplement (Thermo Fisher Scientific), 1X N-2 supplement (Thermo Fisher Scientific), 1X Non-essential amino acids (Thermo Fisher Scientific), 1X Chemically defined lipid mix (Thermo Fisher Scientific), 1 mM GlutaMax (Thermo Fisher Scientific), 0.2 mM Ascorbic Acid (Millipore), 100 ng/mL IL-34 (PeproTech, Cranbury, NJ), 2 ng/mL TGF-β1 (PeproTech) and 20 ng/mL M-CSF (PeproTech). Fresh media was added 3 days after seeding, half of which was replenished with fresh media 6 days following seeding. The assay was performed 7 days after cells were seeded in 96-well plates. Two assay protocol variations were performed: cells were either pre-treated with VEN-02XX to block NLRP3 inflammasome formation and then primed with LPS (Fig. 1, D. Compound added before LPS priming) or were primed with LPS and then treated with VEN-02XX (Fig. 1, D. Compound added after LPS priming). For compound treatment, cells were treated with VEN-02XX for 1 h (top concentration 100 µM; 3-fold titration) to block NLRP3 inflammasome formation. For LPS priming, cells were primed with 100 ng/mL LPS (E.coli O26:B6, Millipore) for 4 h. At the end of either protocol, cells were stimulated with 10 uM Nigericin (Millipore) for 1 h, after which conditioned media was collected for analysis of secreted IL-1β, IL-18 and TNFα in an electrochemiluminescence immunoassay (Mesoscale Discovery).

[3] = system: NLRC4; experiment: NLRC4 in vitro selectivity assay (THP1-Null2 cells, Needle-Tox, IL-1β); assay type: cell-based; conditions: n = 2; top concentration 50 µM
[4] = system: 5XFAD/Rubicon KO mice; experiment: Immunoblotting of NeuN and MAP2 in cortical and hippocampal lysates of 5XFAD/Rubicon KO mice; assay type: in vivo, mouse; conditions: 20 mg/kg vs vehicle, not statistically significant
Experimental: (§1) 5XFAD/Rubicon KO mice received vehicle (0.5% w/v methylcellulose/0.1% w/v Tween® 80 in water) or VEN-02XX (0.01, 1, or 20 mg/kg) every day by oral gastric gavage for 9 weeks.
Ten ug of protein was separated by gel electrophoresis (one gel loaded with cortex samples and one gel loaded with hippocampus samples), on a 4–15% gradient Tris-glycine gel and transferred to PVDF membranes using the TransBlot Turbo semi-dry transfer system (Bio-Rad Laboratories, Hercules, CA). The membranes were blocked in Tris-buffered saline, 0.1% Tween 20 (1X TBST) with 5% milk for 1 h at room temperature followed by overnight incubation at 4 °C with primary antibodies (1:1000 rabbit anti-NeuN [EMD Millipore, Burlington, MA] and 1:10,000 rabbit anti-Vinculin [Cell Signaling, Boston, MA]) diluted in TBST with 1% milk. For the complete list of antibodies please reference Supplementary Table 2. The next day, membranes were washed three times with 1XTBST for 10 min before incubation with HRP-conjugated secondary antibody (1:500 goat anti-rabbit [Cedarlane Labs, Burlington, ON]) for 90 min at room temperature. Membranes were then washed three times with 1XTBST for 10 min and developed with Pierce ECL western blotting substrate (Thermo Fisher Scientific) and visualized on a ChemiDoc imaging system (Bio-Rad Laboratories). […]

[5] = system: 5XFAD/Rubicon KO mice; experiment: Plasma neurofilament light chain (NfL) ELISA in 5XFAD/Rubicon KO mice; assay type: in vivo, mouse; conditions: 20 mg/kg, 9 weeks PO QD; lack of a dose-response
Experimental: as §1
Blood was collected via submandibular puncture. Briefly, mice were immobilized, and a small puncture was made in the submandibular vein using a sterile 28 g lancet. Blood was collected using a capillary tube coated in 0.5 M EDTA into separation tubes for plasma as indicated. Blood was subsequently centrifuged for 15 min at 13,000 rpm in a refrigerated centrifuge. Plasma was harvested as indicated and was either used immediately or stored at −80 °C until use.
Brain tissue was homogenized in PBS, pH 7.4 with 1X Halt™ protease inhibitor cocktail (Thermo Fisher Scientific, Waltham, MA) using a Bead Ruptor homogenizer (Omni International, Kennesaw, GA). Homogenates were clarified by centrifugation at 10,000 × g for 10 min. The crude homogenate was used for quantification of VEN-02XX levels, as described below. Total protein concentrations were quantified from clarified supernatants in a Pierce BCA protein assay (Thermo Fisher Scientific). Cytokine and chemokine levels were quantified using an electrochemiluminescence immunoassay (ECLIA) for IL-1β (total), TNFα, IL-6 and IP-10 (U-PLEX Custom Biomarker Group 1 (mouse) assay, Meso Scale Discovery, Rockville, MD) following the manufacturer’s instructions. […]

SMILES: CC(C)(O)CNc1nnc(-c2ccc(Cl)cc2C(F)(F)F)c2ccncc12 [VEN-02XX]
- IC50 ([1]; Homo sapiens, PBMC, geometric mean, n = 3, read-out: IL-1β inhibition (PBMCs) IC50): 350 nM
- potency of NLRP3 inhibition in PBMC ([1]; in words): sub-micromolar potency
- IC50 ([2]; compound added after LPS priming): 250 nM
- IC50 ([2]; compound added before LPS priming): 300 nM
- potency of NLRP3 inhibition in iPSC-derived microglia ([2]; in words): sub-micromolar potency
- block of IL-1β release downstream of NLRC4 [3]: inability to block IL-1β release
- MAP2 expression (immunoblot, normalized to vinculin) [4]: improved MAP2 levels
- NeuN protein expression (immunoblot, normalized to vinculin) [4]: consistent improvements in overall NeuN protein expression
- plasma NfL levels [5]: significantly reduced
